Data on 4 molecules can be found in patent publication US9403805B2, “Antiviral compounds” (Hoffmann-La Roche Inc., priority 2012, dated 2016).

The assay deals with HCV GT1b replicon. Briefly: HCV GT1b replicon luciferase reporter assay (2209-23 cells). The assay is classed as cell-based. The conditions noted are these: Hepatitis C virus, genotype 1a / genotype 1b; 2209-23 cells (Huh-7 with GT-1b Con1 subgenomic replicon), Renilla luciferase read 72 hours after compound addition; read-out: GT-1a - EC50 (nM) HCV, GT1b, IC50 (µM). The source says: Determination of compounds HCV GT1b inhibitory replicon activity using the replicon luciferase reporter assay
The 2209-23 cell line was developed at Roche by stable transfection of the hepatoma cell line Huh-7 with a GT-1b Con1 subgenomic bicistronic replicon as previously described. Subgenomic replicon cell line was established in cured Huh7 cells, obtained from R. Bartenschlager (J Virol. 2003 March; 77 (5):3007-19) The GT-1a H77 subgenomic replicon vector pRLuc H77 1b 75 S/I, was created by replacing the nonstructural region of the GT-1b Con1 subgenomic replicon by the one of the H77 strain, except for the first 75 amino acids of the NS3 protein that are from GT-1b Conl strain. (J. Virol. 2001 77:5352-59) The GT-1a pRLuc H77 1b 75 S/I subgenomic replicon cell line was established in cured Huh7 cells, obtained from R. Bartenschlager. (J Virol. 2003 March; 77 (5):3007-19)
All the subgenomic replicon cell lines were cultured in Dulbecco's Modified Eagle Medium (DMEM-Glutamax™-I; Invitrogen Cat #10569-010). The medium was supplemented with 10% Fetal Bovine Serum (Invitrogen Cat #10082-147), 1% penicillin/streptomycin (Mediatech Cat #30-002-CI) and 500 μg/ml of G418 (Mediatech Cat #30-234-CI). Cells were maintained at 37° C. in a humidified 5% CO2 atmosphere.
2209-23 cells were plated at a cell density of 5000 cells per well in 96 well plates (Becton Dickinson, Cat #35 3296). Cells were plated in 90 μl of Dulbecco's Modified Eagle Medium (DMEM-Glutamax™-I), (Invitrogen Cat #10569-010) medium was supplemented with 5% Fetal Bovine Serum (Invitrogen Cat #10082-147), 1% penicillin/streptomycin (Mediatech Cat #30-002-CI). The pRluc H77 1b 75 SA cells were plated in 96-well plate at 3000 cells/well in DMEM-Glutamax™-I containing 5% FBS and 1% penicillin/streptomycin in 90 μl final volume. Cells were allowed to equilibrate for 24 hours at 37° C. and 5% CO2 at which time compounds were added. Compounds (or medium as a control) were added 24 hours post-plating in 3 fold dilutions at a final DMSO concentration of 1% in 10 μl volume. Renilla luciferase reporter signal was read 72 hours after addition of compounds using the Renilla Luciferase Assay System (Promega, cat #E2820). EC50 values were defined as the compound concentration at which a 50% reduction in the levels of renilla luciferase reporter was observed as compared to control samples in the absence of compound and was determined by non-linear fitting of compound dose-response data. The EC50 was approximated if maximum percentage inhibition was less than 90% and more than 70%.

Take `O=C(N[C@H]1C[C@@H](C(=O)N2CCCC2)N(CC2CCCCC2)C1)c1ccc2ccccc2c1O` [Compound I-26, 1-Hydroxy-naphthalene-2-carboxylic acid [(3S,5S)-1-cyclohexylmethyl-5-(pyrrolidine-1-carbonyl)-pyrrolidin-3-yl]-amide]: the IC50 worked out at 640 nM.
For the molecule `CCOC(=O)[C@@H]1C[C@@H](NC(=O)c2ccc3ccccc3c2O)CN1Cc1ccccc1` [Compound I-27, (2S,4R)-1-Benzyl-4-[(1-hydroxy-naphthalene-2-carbonyl)-amino]-pyrrolidine-2-carboxylic acid ethyl ester], the half-inhibitory concentration (IC50) amounted to 659 nM.
Then `COC(=O)[C@@H]1C[C@@H](NC(=O)c2ccc3ccccc3c2O)CN1CC1CCCCC1` [Compound I-28, (2S,4R)-1-Cyclohexylmethyl-4-[(1-hydroxy-naphthalene-2-carbonyl)-amino]-pyrrolidine-2-carboxylic acid methyl ester], with 793 nM; and `O=C(N[C@H]1C[C@@H](C(=O)N2CCC2)N(CC2CCCCC2)C1)c1ccc2ccccc2c1O` [Compound I-29, 1-Hydroxy-naphthalene-2-carboxylic acid [(3S,5S)-5-(azetidine-1-carbonyl)-1-cyclohexylmethyl-pyrrolidin-3-yl]-amide], with 826 nM.
